Data on eight compounds can be found in publication PMC7373712 (British Journal of Clinical Pharmacology, 2020).

Like-named read-outs stand apart in the source and are kept apart here.

For data set [1] the following is noted: cited from earlier work.
The nature of data set [2]: Pharmacokinetics of oral microdosed FXaI cocktail. The following applies: for sex differences in pharmacokinetics (in words): 7 male, 11 female; for Ae (amount excreted in urine as parent drug) / Cl/F (apparent oral clearance): geom. mean (95% CI); for interaction / change of pharmacokinetics during voriconazole (in words): microdose cocktail with voriconazole.
A short description of data set [3]: Safety: adverse events in study participants. The following applies: for total number of AEs / participants with adverse event (AE): during the treatment named; for participants with adverse event (AE): healthy participants.
The subject of data set [4] is CYP3A. In words: CYP3A activity by oral microdosed midazolam. To be noted: for AUC: both, human, in vivo, geom. mean.
The conditions of data set [5]: cited from earlier work. The source holds these as a separate data set.
[6] abbreviates: microdose cocktail alone, cobicistat cohort (n = 6).
The mark [7] stands for this setting: microdose cocktail alone, rifampicin cohort (n = 6).
Where [8] appears, read: microdose cocktail alone, voriconazole cohort (n = 6).
Setting [9] is: microdose cocktail during voriconazole (n = 6).
Where [10] appears, read: FXaI with cobicistat / FXaI alone.

For the compound `CN1CCc2nc(C(=O)N[C@@H]3C[C@@H](C(=O)N(C)C)CC[C@@H]3NC(=O)C(=O)Nc3ccc(Cl)cn3)sc2C1` [edoxaban], the oral bioavailability in data set [1] is given as ~ 50%. For the same compound, the “excreted unchanged into urine” value in data set [1] (of an oral dose) is on record as “About 24%”. For the same compound, in data set [1] (of the oral dose), the “found in faeces as parent drug” value is reported as ~ 50%. In data set [2], the “sex differences in pharmacokinetics (in words)” value (“sex differences” below) is “No sex differences”; the “interaction / change of pharmacokinetics during voriconazole (in words)” value (“interaction / change” for short) is “none and No significant change”. Also, in data set [2] (by cobicistat), the “Cl/F reduced to (% of FXaI alone)” value came to 57%, the “Vss/F reduced to (% of FXaI alone)” value was determined as 42% and the “terminal elimination half-life shortening” value was 25%. Moreover, in data set [2] (by single dose rifampicin), the “Cl/F reduced to (% of FXaI alone)” value was found to be 53%, the “Vss/F reduced to (% of FXaI alone)” value came out at 37% and the “terminal elimination half-life shortening” value was 30%. For the same compound, the “increased fraction excreted unchanged into urine” value in data set [2] (by single oral dose of rifampicin) worked out at 48.7%. Moreover, in data set [2] (setting [6]), the “Ae (amount excreted in urine as parent drug)” value was 32.3 (23.6–44.3) % of dose and the “Cl/F (apparent oral clearance)” value is 682 (578–804) mL/min. For the same compound, in data set [2] (setting [7]), the “Ae (amount excreted in urine as parent drug)” value was 27.2 (19.1–38.8) % of dose and the “Cl/F (apparent oral clearance)” value is listed as 643 (499–829) mL/min. For the same compound, in data set [2] (setting [8]), the “Ae (amount excreted in urine as parent drug)” value is reported as 24.4 (17.7–33.6) % of dose and the “Cl/F (apparent oral clearance)” value is on record as 882 (619–1255) mL/min. In addition, in data set [2] (setting [9]), the “Ae (amount excreted in urine as parent drug)” value was 29.4 (21.2–40.8) % of dose and the “Cl/F (apparent oral clearance)” value was 700 (445–1100) mL/min.

Consider `CC(C)c1nc(CN(C)C(=O)N[C@@H](CCN2CCOCC2)C(=O)N[C@H](CC[C@H](Cc2ccccc2)NC(=O)OCc2cncs2)Cc2ccccc2)cs1` [cobicistat], for which, in data set [3], the “total number of AEs” value is reported as 3 and the “participants with adverse event (AE)” value is 3 out of 6.

For `CO[C@H]1/C=C/O[C@@]2(C)Oc3c(C)c(O)c4c(O)c(c(/C=N/N5CCN(C)CC5)c(O)c4c3C2=O)NC(=O)/C(C)=C\C=C\[C@H](C)[C@H](O)[C@@H](C)[C@@H](O)[C@@H](C)[C@H](OC(C)=O)[C@@H]1C` [rifampicin], in data set [3], the “participants with adverse event (AE)” value was “none”.

In the case of `C[C@@H](c1ncncc1F)[C@](O)(Cn1cncn1)c1ccc(F)cc1F` [voriconazole], in data set [3], the “total number of AEs” value came out at 7 and the “participants with adverse event (AE)” value is on record as “Five out of 6”. Moreover, the “visual disturbances (number of AEs)” value in data set [3] (during voriconazole treatment) is 4. In addition, the “CYP3A inhibition (in words)” value in data set [4] (judged from microdosed midazolam exposure) is given as “strong CYP3A inhibitors”.

Regarding `Cn1c(Cn2ccc(C(F)(F)F)c(Oc3cc(Cl)cc(C#N)c3)c2=O)n[nH]c1=O` [doravirine], the elimination half-life in data set [1] (alone) is 18.6 h; in data set [1] (with a single dose of rifampicin), 5.5 h.

As for `COc1ccc(-n2nc(C(N)=O)c3c2C(=O)N(c2ccc(N4CCCCC4=O)cc2)CC3)cc1` [apixaban], in data set [1] (given orally), the “excreted unchanged into faeces and urine” value is given as not below 50%; the “fraction metabolised by CYP1A2 and CYP2J2” value is listed as “about 6%”; the “fraction metabolised via CYP3A” value was “approximately 15%”; the “not identified or recovered so far” value is given as “about 22%”. In addition, in data set [2], the “sex differences” value was “No sex differences” and the “interaction / change” value is reported as “minor interaction”. Moreover, in data set [2] (by cobicistat), the “Cl/F reduced to (% of FXaI alone)” value is reported as 60%, the “Vss/F reduced to (% of FXaI alone)” value is listed as approximately 50%, the “increase of AUC” value is given as 67% and the reduction of clearance came to 40%. Also, in data set [2] (by single dose rifampicin), the “Cl/F reduced to (% of FXaI alone)” value was found to be 75%, the “Vss/F reduced to (% of FXaI alone)” value is reported as approximately 50%, the “effect on Cmax (increase)” value is recorded as 69% and the reduction of clearance came out at 25%. The “terminal elimination half-life shortening” value in data set [2] (by single dose rifampicin) is given as approximately 40%. In data set [2] (by voriconazole), the “Cl/F reduced to (% of FXaI alone)” value amounted to 75%, the “effect on Cmax (increase)” value was determined as 15% and the “reduction of apparent oral clearance (Cl/F)” value was 25%. Further, in data set [2] (during cobicistat), the “renal clearance reduced to (% of FXaI alone)” value amounted to 70%. Besides, in data set [2] (setting [6]), the “Cl/F (apparent oral clearance)” value is 66.4 (60.0–73.5) mL/min. The “Cl/F (apparent oral clearance)” value in data set [2] (setting [7]) is listed as 53.6 (44.5–64.6) mL/min. The “Cl/F (apparent oral clearance)” value in data set [2] (setting [8]) is 78.0 (69.0–88.4) mL/min. For the same compound, in data set [2] (setting [9]), the “Cl/F (apparent oral clearance)” value was 58.8 (42.5–81.4) mL/min.

Turning to `Cc1ncc2n1-c1ccc(Cl)cc1C(c1ccccc1F)=NC2` [midazolam], the AUC in data set [4] (AUC2–4, 10 μg midazolam + cobicistat (n = 6)) came out at 0.27 ng·h/mL; in data set [4] (AUC2–4, 10 μg midazolam + voriconazole (n = 6)), 0.285 ng·h/mL.

As for `O=C(NC[C@H]1CN(c2ccc(N3CCOCC3=O)cc2)C(=O)O1)c1ccc(Cl)s1` [rivaroxaban], the “AUC ratio with and without ketoconazole” value in data set [5] (microdosed FXaI cocktail) was 2.27. For the same compound, the “AUC ratio with and without ketoconazole” value in data set [5] (therapeutic dose, single-dose, 200 mg ketoconazole) is given as 1.82. In addition, the “AUC ratio with and without ketoconazole” value in data set [5] (therapeutic dose, steady-state, 400 mg ketoconazole) was 2.58. In data set [1], the “share of CYP3A and CYP2J2 in total clearance” value is given as ~ 32%. In data set [2], the “sex differences” value was “No sex differences” and the “interaction / change” value was “minor interaction”. In addition, in data set [2] (setting [10]), the “AUC ratio (AUCR)” value worked out at 2.0 and the Cmax ratio was 1.39. Besides, in data set [2] (by cobicistat), the “Vss/F reduced to (% of FXaI alone)” value came to 72%, the “renal clearance reduced by” value is reported as approximately 50% and the “terminal elimination half-life prolongation” value is 40%. Moreover, in data set [2] (by single dose rifampicin), the “Vss/F reduced to (% of FXaI alone)” value stood at 64% and the “terminal elimination half-life shortening” value stood at 31%. Further, in data set [2] (by voriconazole), the “change of AUC” value is 33% and the “reduction of apparent oral clearance (Cl/F)” value was 33%. For the same compound, in data set [2] (setting [6]), the “Ae (amount excreted in urine as parent drug)” value is listed as 44.5 (32.5–61.1) % of dose and the “Cl/F (apparent oral clearance)” value is given as 104 (84–129) mL/min. Also, in data set [2] (setting [7]), the “Ae (amount excreted in urine as parent drug)” value is recorded as 54.8 (48.7–61.6) % of dose and the “Cl/F (apparent oral clearance)” value is recorded as 113 (84–152) mL/min. Besides, in data set [2] (setting [8]), the “Ae (amount excreted in urine as parent drug)” value is 53.7 (46.2–60.1) % of dose and the “Cl/F (apparent oral clearance)” value is recorded as 121 (85–172) mL/min. In addition, in data set [2] (setting [9]), the “Ae (amount excreted in urine as parent drug)” value is listed as 55.5 (47.8–64.4) % of dose and the “Cl/F (apparent oral clearance)” value is recorded as 92 (62–137) mL/min.

For orientation: AUC means the area under the concentration-time curve, a measure of exposure.
